Measurements from patent publication US10851102B2, “Imidazole and triazole containing bicyclic compounds as JAK inhibitors” (THERAVANCE BIOPHARMA R&D IP, LLC, priority 2019, dated 2020).

What was measured:
[1] = tested on: Caco-2 cell monolayers; test: Caco-2 permeation assay; type: in vitro ADME, human; details: 5 μM, A to B, + Verapamil 25 μM, 120 minutes
Description: Assay 5: Caco-2 Permeation Assay

[2] = target: JAK1 (Homo sapiens (Human), UniProt P23458); test: Biochemical JAK and Tyk2 kinase assays (LanthaScreen): JAK1; details: 1 h pre-incubation, ATP at Km; pIC50 converted to pKi by Cheng-Prusoff
Chain of JAK1 (P23458 whole entry): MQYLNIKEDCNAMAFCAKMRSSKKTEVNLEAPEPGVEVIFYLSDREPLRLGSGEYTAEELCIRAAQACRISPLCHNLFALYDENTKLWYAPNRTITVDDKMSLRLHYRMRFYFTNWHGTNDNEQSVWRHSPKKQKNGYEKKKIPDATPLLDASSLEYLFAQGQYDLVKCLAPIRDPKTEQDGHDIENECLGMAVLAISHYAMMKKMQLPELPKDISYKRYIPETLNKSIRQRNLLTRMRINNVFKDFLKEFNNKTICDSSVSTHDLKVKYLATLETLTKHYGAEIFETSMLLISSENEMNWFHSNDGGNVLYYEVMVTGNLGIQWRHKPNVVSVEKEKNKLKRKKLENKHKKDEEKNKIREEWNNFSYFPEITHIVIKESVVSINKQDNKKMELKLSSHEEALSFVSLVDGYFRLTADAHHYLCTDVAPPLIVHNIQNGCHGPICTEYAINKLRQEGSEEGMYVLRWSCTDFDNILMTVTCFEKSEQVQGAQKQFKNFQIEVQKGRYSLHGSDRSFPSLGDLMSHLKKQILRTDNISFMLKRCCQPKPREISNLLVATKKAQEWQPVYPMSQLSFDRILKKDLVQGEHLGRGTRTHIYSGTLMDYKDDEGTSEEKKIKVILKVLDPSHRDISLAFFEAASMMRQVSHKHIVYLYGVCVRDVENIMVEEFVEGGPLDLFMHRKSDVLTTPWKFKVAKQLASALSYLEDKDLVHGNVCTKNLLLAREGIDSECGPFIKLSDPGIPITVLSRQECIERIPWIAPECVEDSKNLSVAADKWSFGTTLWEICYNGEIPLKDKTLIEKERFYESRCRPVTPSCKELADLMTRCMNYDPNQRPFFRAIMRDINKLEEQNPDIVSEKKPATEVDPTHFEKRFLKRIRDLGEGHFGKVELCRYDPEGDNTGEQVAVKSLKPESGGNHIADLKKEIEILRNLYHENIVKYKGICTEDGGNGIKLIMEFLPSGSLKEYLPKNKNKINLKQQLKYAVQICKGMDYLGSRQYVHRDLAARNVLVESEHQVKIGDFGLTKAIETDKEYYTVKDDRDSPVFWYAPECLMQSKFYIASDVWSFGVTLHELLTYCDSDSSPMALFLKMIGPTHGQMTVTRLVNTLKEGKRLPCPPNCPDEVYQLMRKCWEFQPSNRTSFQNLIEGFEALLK
In short: (§1)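 Recombinant GST-tagged JAK enzymes with GFP-tagged STAT1 peptide substrate in 50 mM HEPES pH 7.5, 10 mM MgCl2, 1 mM EGTA, 0.01% Brij-35. Compounds pre-incubated 1 h at ambient temperature before ATP start; 1 h reaction, then EDTA plus Tb-anti-pSTAT1 (pTyr701) TR-FRET read. IC50 from 4-parameter fit, converted to pKi by Cheng-Prusoff.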

[3] = tested on: IL-2 stimulated pSTAT5 in CD4+ T cells isolated from murine splenocytes (JAK3); test: Inhibition of IL-2 stimulated pSTAT5 in CD4+ T cells isolated from murine splenocytes; type: cell-based; details: Mus musculus, IL-2 7 ng/ml, read-out: pIC50, inhibition of IL-2 stimulated pSTAT5 (converted)
Method: Assay 3: Inhibition of IL-2 Stimulated pSTAT5 in CD4+ T Cells Isolated from Murine Splenocytes
The potency of test compounds for inhibition of interleukin-2 (IL-2) stimulated STATS phosphorylation was measured in the CD4+ T cells isolated from murine splenocytes using AlphaLisa. Because IL-2 signals through JAK3, this assay provides a measure of JAK3 cellular potency in mouse.
Phosphorylated STATS was measured via the AlphaLISA SureFire Ultra pSTAT5 (Tyr694/699) kit (PerkinElmer).
CD4+ T cells were isolated from murine splenocytes via negative selection on a magnetic column (Miltnyi Biotec) and re-suspended in assay media (phenol red-free DMEM (Life Technologies) supplemented with 10% FBS (ATCC)). Cells were seeded at 50,000 cells/well in assay media (2 μL/well). Compounds were serially diluted in DMSO and diluted to 2× final concentration in assay media. Compound was added (4 μl/well) and the cells incubated at 37° C., 5% CO2 for 1 hour, followed by the addition of IL-2 (R&D Systems; final concentration 7 ng/ml) in pre-warmed assay media (2 μL) for 30 minutes. After cytokine stimulation, cells were lysed with 2 μl of 5× AlphaLisa Lysis Buffer (PerkinElmer). The lysate was shaken at 900 rpm for 10 minutes at room temperature (RT). Phosphorylated STATS was measured via the pSTAT5 AlphaLisa kit (PerkinElmer). Freshly prepared acceptor bead mixture was dispensed onto lysate (5 ul) under green filtered <100 lux light. Plates were shaken at 900 rpm for 2 mins, briefly spun down, and incubated for 2 hrs at RT in the dark. Donor beads were dispensed (5 μl) under green filtered <100 lux light. Plates were shaken at 900 rpm for 2 mins, briefly spun down, and incubated overnight at RT in the dark. Luminescence was measured with excitation at 689 nm and emission at 570 nm using an EnVision plate reader (PerkinElmer) under green filtered <100 lux light.
To determine the inhibitory potency of test compounds in response to IL-2, the average emission intensity of beads bound to pSTATS was measured in primary CD4+ T cells isolated from murine splenocytes. IC50 values were determined from analysis of the inhibition curves of signal intensity vs compound concentration. Data are expressed as pIC50 (negative decadic logarithm IC50) values (mean±standard deviation).

[4] = target: Tyk2 (Homo sapiens (Human), UniProt P29597); test: Biochemical JAK and Tyk2 kinase assays (LanthaScreen): Tyk2; details: 1 h pre-incubation, ATP at Km; pIC50 converted to pKi by Cheng-Prusoff
Chain of Tyk2 (P29597 whole entry): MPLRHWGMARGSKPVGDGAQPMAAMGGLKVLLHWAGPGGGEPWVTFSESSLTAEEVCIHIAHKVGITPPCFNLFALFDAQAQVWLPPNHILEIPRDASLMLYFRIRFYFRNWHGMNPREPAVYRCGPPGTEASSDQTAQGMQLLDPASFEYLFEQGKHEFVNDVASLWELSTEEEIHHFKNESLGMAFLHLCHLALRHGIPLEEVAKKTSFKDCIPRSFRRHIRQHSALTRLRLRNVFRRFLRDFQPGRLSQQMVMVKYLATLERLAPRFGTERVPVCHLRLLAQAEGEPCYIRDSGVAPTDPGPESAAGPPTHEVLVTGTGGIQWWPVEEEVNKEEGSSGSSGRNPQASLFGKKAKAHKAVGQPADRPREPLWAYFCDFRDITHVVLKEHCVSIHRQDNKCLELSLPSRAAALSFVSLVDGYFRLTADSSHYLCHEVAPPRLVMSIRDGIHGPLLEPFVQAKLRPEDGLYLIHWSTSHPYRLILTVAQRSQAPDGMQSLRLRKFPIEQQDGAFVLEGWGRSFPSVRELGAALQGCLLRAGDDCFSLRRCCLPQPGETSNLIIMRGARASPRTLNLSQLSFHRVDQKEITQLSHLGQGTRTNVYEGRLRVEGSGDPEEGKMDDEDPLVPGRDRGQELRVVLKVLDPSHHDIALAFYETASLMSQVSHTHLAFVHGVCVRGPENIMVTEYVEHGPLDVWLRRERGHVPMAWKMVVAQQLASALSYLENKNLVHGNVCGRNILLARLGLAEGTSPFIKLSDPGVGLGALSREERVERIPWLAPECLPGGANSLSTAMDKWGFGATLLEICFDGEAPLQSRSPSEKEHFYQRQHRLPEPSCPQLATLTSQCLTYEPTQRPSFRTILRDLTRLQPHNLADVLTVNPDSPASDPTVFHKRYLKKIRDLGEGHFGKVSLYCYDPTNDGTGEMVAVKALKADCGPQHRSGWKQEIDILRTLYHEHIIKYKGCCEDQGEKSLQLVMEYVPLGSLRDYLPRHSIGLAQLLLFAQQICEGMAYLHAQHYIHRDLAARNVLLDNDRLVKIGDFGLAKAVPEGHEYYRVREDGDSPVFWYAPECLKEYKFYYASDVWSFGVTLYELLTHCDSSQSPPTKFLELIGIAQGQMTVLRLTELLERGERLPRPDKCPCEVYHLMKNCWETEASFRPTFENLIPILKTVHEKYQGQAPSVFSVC
In short: as §1

SMILES	Caco Kp 10^−6 cm/sec [1]	JAK 1 (pKi) [2]	IC50 [3]	Tyk 2 (pKi) [4]
C=CC(=O)N1CC(COc2cc(-c3cc(F)c(O)cc3CC)cn3cncc23)C1 [Example 13, 1-(3-(((6-(2-ethyl-5-fluoro-4-hydroxyphenyl)imidazo[1,5-a]pyridin-8-yl)oxy)methyl)azetidin-1-yl)prop-2-en-1-one]	A (A represents a value below 5×10^−6 cm/sec)	E (E represents a pKi value of 7 or below (Ki of 100 nM or above))	< 1000 nM	E (E represents a pKi value of 7 or below (Ki of 100 nM or above))
C=CC(=O)N1CC(COc2cc(-c3ccc(O)c(Cl)c3)cn3cncc23)C1 [Example 12, 1-(3-(((6-(3-chloro-4-hydroxyphenyl)imidazo[1,5-a]pyridin-8-yl)oxy)methyl)azetidin-1-yl)prop-2-en-1-one]	A (A represents a value below 5×10^−6 cm/sec)	E (E represents a pKi value of 7 or below (Ki of 100 nM or above))	< 1000 nM	E (E represents a pKi value of 7 or below (Ki of 100 nM or above))
